Positions count from the first letter of the chain named.

One test deals with T1, HvExoI W286F mutant (Hordeum vulgare, UniProt Q9XEI3, W311F).
T1 sequence (Q9XEI3 26-630 W311F): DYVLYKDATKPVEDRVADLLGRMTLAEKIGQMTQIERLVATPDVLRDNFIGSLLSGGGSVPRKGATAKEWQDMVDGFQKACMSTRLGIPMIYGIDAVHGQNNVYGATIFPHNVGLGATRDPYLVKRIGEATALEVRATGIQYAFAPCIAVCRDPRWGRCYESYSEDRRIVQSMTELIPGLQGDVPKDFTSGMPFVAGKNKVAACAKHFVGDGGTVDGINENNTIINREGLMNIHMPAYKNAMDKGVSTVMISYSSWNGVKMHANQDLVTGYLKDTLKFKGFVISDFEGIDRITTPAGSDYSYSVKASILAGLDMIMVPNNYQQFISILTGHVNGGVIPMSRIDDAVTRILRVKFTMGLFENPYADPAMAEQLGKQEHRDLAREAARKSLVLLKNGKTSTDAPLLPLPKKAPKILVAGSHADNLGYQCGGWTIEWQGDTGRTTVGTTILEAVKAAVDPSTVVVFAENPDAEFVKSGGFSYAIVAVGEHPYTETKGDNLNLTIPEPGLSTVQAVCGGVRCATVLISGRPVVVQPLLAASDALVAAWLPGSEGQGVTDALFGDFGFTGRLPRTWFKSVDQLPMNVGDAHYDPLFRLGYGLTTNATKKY
Nature of the test: Steady-state apparent kinetic constants with substrates. The test is classed as biochemical. The conditions noted are these: substance is the substrate. On the procedure:
(§1) Dependency of activities of WT and mutant HvExoI on pH (McIlvaine buffers in the pH range of 3.5–8.5 at 30 °C) and temperature (100 mM sodium acetate buffer, pH 5.25, temperature range 0–80 °C, 15 min incubations) were determined using 0.2% (w/v) 4NP-Glc[21],[59]. Relative rates of hydrolysis of β-linked poly-, oligosaccharides, and aryl-glucosides were determined using near-homogenous HvExoI at 50 pmoles. […] Kinetic parameters were calculated from the analyses of Michaelis-Menten plots with Grafit 7.0.3[62] and processed by a proportional weighted fit, using nonlinear regression. The relative rates of hydrolysis, kinetic, and inhibition data were rounded to one or two decimal points (Supplementary Tables 2–4).

The target of the next test is T2, HvExoI W286Y mutant (Hordeum vulgare, UniProt Q9XEI3, W311Y).
T2 sequence (Q9XEI3 26-630 W311Y): T1 sequence (Q9XEI3 26-630 W311F) with F286Y
Described as above. The test is classed as biochemical. The conditions noted are these: substance is the substrate. On the procedure:
as §1

Consider laminarin, for which, on HvExoI W286F mutant, the Km worked out at 200 ± 10 µM and the kcat stood at 4.5 ± 0.3 s⁻¹. Besides, at HvExoI W286Y mutant, the Km worked out at 100 ± 10 µM and the kcat stood at 30.3 ± 2.4 s⁻¹.

For orientation: Km means the concentration of substrate that gives half-maximal velocity. As usually defined, the kcat is the number of substrate molecules converted per active site and unit of time at saturation.

(Values after article PMC9508125, “The evolutionary advantage of an aromatic clamp in plant family 3 glycoside exo-hydrolases” (Nature Communications, 2022).)
